# Assay results reported in patent publication US7741274B2, “Casein derived peptides and uses thereof in therapy” (priority 2000, dated 2010).
# Experiments:
# [1] = tested on: murine primary bone marrow cells; assay: Multipotential colonies (CFU-GEMM) from murine bone marrow cells, colony and differential counts; type: cell-based, mouse; conditions: for megakaryocyte formation and development: 8 days treatment
# Description: Stimulation of Hematopoiesis from Bone Marrow (BM) Cells in Culture:
# Proliferation of megakaryocytes in multipotential colonies (CFU-GEMM) from murine Bone Marrow cells: Primary bone marrow cells (1×10^5 per ml) from 8-12 week-old C3H/HeJ mice were grown in serum-free methyl cellulose-IMDM medium for 8-9 days at 5% CO2, 95% air, at 37° C. The medium, appropriate for the growth of multipotential colonies (CFU-GEMM), contained 1% BSA (Sigma), 10^−4 M thioglycerol (Sigma), 2.8×10^−4 M human transferrin (TF, Biological industries, Israel), 10% WEHI-CM as a source of IL-3 and 2 units per ml erythropoietin (rhEPO, R & D Systems, Minneapolis). Colonies were scored after 8-9 days using an Olympus dark field microscope. They were picked with a micropipette, cytocentrifuged and stained with May-Grunwald-Giemsa for differential counts. At least 700 cells were counted for each preparation. […]
# Proliferation of Macrophage cells in CFU-GEMM: Multipotent (CFU-GEMM colonies grown from primary bone marrow cells as described for the assay of megakaryocyte proliferation above were collected, stained and counted for macrophage cells. At least 700 cells were counted for each preparation.
# Proliferation of Red Blood Cells in CFU-GEMM: Multipotent (CFU-GEMM) colonies grown from primary bone marrow cells as described for the assay of megakaryocyte proliferation above were collected, stained and counted for red blood cells. At least 700 cells were counted for each preparation. […]
# [2] = tested on: HIV-1IIIB; assay: Inhibition of HIV-1 infection of CEM lymphocytes (cell counts, P24 antigen assay); type: cell-based; conditions: for cell counts: infected control 1.06×10^6; for HIV-1 infection level, P24 antigen: 7 days post infection, control 0.52
# Description: (§1) Inhibition of in vitro HIV infection of human lymphocyte cells:
# (§2) Peptides: Peptides (either peptides derived from natural casein or synthetic peptides derived from casein (1-25 amino acids in length, see table 3) supplied as lyophilized powder were resuspended in RPMI complete medium and added to cell cultures at a final concentrations of 50 to 1000 μg per ml.
# (§3) Cells: Several types of freshly isolated human cells (primary cells) and cell lines are known to be susceptible to in vitro HIV-1 infection, although essentially any cell displaying even low surface levels of the CD4 molecule can be considered a potential target for HIV-1 infection. Two commonly used human cell lines which are highly sensitive for HIV-1 infection were chosen, CEM and Sup-T1.
# CEM is a human T4-lymphoblastoid cell line initially derived by G. E. Foley et al. [(1965), Cancer 18:522] from peripheral blood buffy coat of a person with acute lymphoblastic leukemia. These cells were continuously maintained in suspension in medium, and have been used widely for analysis of infectivity, antiviral agents and neutralizing antibodies.
# Virus: The HIV virus strain employed was HIV-1IIIB, originally designated HTLV-IIIB. Concentrated culture fluids of peripheral blood from several patients with AIDS or related diseases were used to establish a permanent productive infection in H-9 cells. This subtype B virus has high capacity to replicate in human T-cell lines. Viral titer was 5.38 ng per ml in stock solution.
# HIV-1 P24 antigen capture assay: An HIV-1 P24 Antigen capture assay kit employed was designed to quantitate the HIV-1 P24 core antigen, which is proportionally related to the degree of viral production in cells. This kit was purchased from the AIDS Vaccine program of the SAIC-NCI-Frederick Cancer Research Institute, P.O. Box B, Frederick, Md. 21702, USA and included 96 well plates coated with monoclonal antibody to HIV-1 P24, primary antibody-rabbit anti-HIV P24 serum, secondary antibody-Goat anti-rabbit-IgG (H+ L) peroxidase conjugated antibody, TMB peroxidase substrate system and lysed HIV-1 P24 standard. The HIV-1 P24 antigen capture assay was analyzed by Organon-Technica ELISA reader at 450 nm with a reference at 650 nm.
# HIV-1 P24 antigen capture ELISA: HIV infection was measured with an indirect enzyme immunoassay which detects HIV-1 P24 core antigens in tissue culture media. Tissue culture supernatant was reacted with primary rabbit anti-HIV-1 P24 antigen and visualized by peroxidase conjugated goat anti rabbit IgG. The reaction was terminated by adding 4N H2SO4, wherein the intensity of the color developed is proportional to the amount of HIV-1 antigen present in the tissue culture supernatant.
# HIV infection of human cultured CD4+ cells: The cells (CEM, Sup-T1) were preincubated with several increasing concentrations of peptides derived from natural casein (50-1000 μg per ml) or synthetic peptides derived from casein (10-500 μg per ml) for 3, 24 (for synthetic and natural peptides) and 48 (only for natural peptides) hours and HIV-1IIIB (45 μg per ml final concentration) was added to each well thereafter. HIV-1IIIB was preincubated with the peptides for 3 hours and then added to cells (5000 cells/well) in tissue culture plates. Controls were IF (Infected, cells cultured with HIV-1 and without peptides), UIF (Uninfected, cells cultured without HIV-1 and without peptides) and UIF+Ch (Uninfected+peptides derived from natural casein, cells cultured in the presence of peptides derived from natural casein {50-1000 μg per ml}) to test the effect of peptides derived from natural casein and synthetic peptides derived from casein on cell viability and growth. Cells were counted for viability and proliferation rate on day 7, 10 and day 14 post infection (the day of P24 antigen culture supernatant harvest). Cells and tissue culture supernatants (media) were harvested and lysed immediately in 1/10 volume of 10% Triton X-100. […]
# [3] = tested on: female C57B1/6j mice fed an atherogenic diet; assay: Diet-induced hypercholesterol/hyperlipidemia in C57B1/6j mice; type: in vivo; conditions: one week post 1 mg per mouse i.p.; diet control 52
# Description: The ability of synthetic casein derived peptides to reduce cholesterol levels in 7-week old female C57B1/6j mice was assessed after feeding an atherogenic diet. The mice were divided into groups of 8. One control group was fed a normal diet. A second control group was fed the modified Thomas Hartroft diet containing cholate (#TD 88051: Teklad, Madison, Wis.) [Gerber, D. W. et al. (2000), Journal of Lipid Research. 42, 2001]. The remaining experimental groups were all fed the modified Thomas Hartroft diet.
# Cholesterol blood levels were determined according to Roche Cholesterol Assay based on Roeschlou & Allin enzymatic method (Roche, Inc., Germany).
# [4] = tested on: Non-Obese Diabetic (NOD) mice; assay: Prevention of glucosuria / Juvenile (Type I, IDDM) Diabetes in NOD mice; type: in vivo, mouse; conditions: 100 μg once weekly for 5 weeks, evaluated after 25 weeks; for Healthy/Total* (healthy and well = sugar not detected in urine): female NOD mice
# Description: Juvenile (Type I, IDDM) Diabetes in Non-Obese Diabetic (NOD) Mice:
# Peptides Derived from Natural Casein:
# NOD mice are a commonly used model for research of autoimmune disease and human Juvenile Diabetes. Six week old female NOD mice received either one or two injections per week of 100 μg of peptides derived from natural casein, for a total of 5 or 11 treatments. Control mice received no treatment. The severity of disease was determined according to glucosuria, which was measured using Combi test sticks [Gross, D. J. et al. (1994), Diabetology, 37:1195]. Results were expressed as the percent of glucosuria-free mice in each sample over a 365-day period.
# Synthetic Peptides Derived from Casein:
# In another experiment, 6 week old female NOD mice received one injection per week of 100 μg of Synthetic peptides derived from casein for a total of 5 treatments. Control mice received no treatment. Results were expressed as the number of healthy mice in the various treated groups.
# [5] = tested on: Non-Obese Diabetic (NOD) mice; assay: Intraperitoneal Glucose Tolerance Test (IPGTT) in NOD mice; type: in vivo, mouse; set-up: IPGT TEST 0 min. (pre-load), plasma glucose: unit not given here; conditions: for IPGT test result (in words): healthy NOD mice after 25 weeks; for IPGT TEST 0 min. (pre-load), plasma glucose: individual healthy NOD mice, 25 weeks after peptides
# Description: Intraperitoneal Glucose Tolerance Test (IPGTT):
# The glucose tolerance test is the definitive method for investigating glucose metabolism and diabetic tendencies in mammals. Twenty five (25) weeks after receiving Synthetic peptides derived from casein, response to a glucose load was assessed with an intraperitoneal glucose tolerance test. Glucose injection consisted of 1 g/kg body weight. Glycemic values were determined from blood drawn prior to test (0 minutes) and 60 minutes after loading.
# [6] = tested on: HIV-1IIIB; assay: Inhibition of HIV-1 infection of Sup-T1 cells; type: cell-based
# Description: as §1, §2
# as §3, with “Sup-T1. […]” for “Sup-T1.”
# HIV-1 P24 antigen capture assay: An HIV-1 P24 Antigen capture assay kit employed was designed to quantitate the HIV-1 P24 core antigen, which is proportionally related to the degree of viral production in cells. […] The HIV-1 P24 antigen capture assay was analyzed by Organon-Technica ELISA reader at 450 nm with a reference at 650 nm.
# HIV-1 P24 antigen capture ELISA: HIV infection was measured with an indirect enzyme immunoassay which detects HIV-1 P24 core antigens in tissue culture media. […]
# [7] = tested on: human bone marrow cells; assay: Colony assays of human bone marrow cells (CFU-GM, erythroid, megakaryocyte, CFU-GEMM); type: cell-based; conditions: TPO-treated cells without peptides
# Description: Proliferation of megakaryocyte- and erythroid forming cells from human bone marrow and cord blood cells: A sample of bone marrow from an apparently healthy human being was processed by density gradient separation using Histopaque-107 (Sigma Diagnostics) to obtain a purified population of mononuclear cells (MNC). […]
# Colony assay medium containing 10^5 MNC per ml was plated in triplicate wells within a 24 well tissue culture plate (Greiner), 0.33 ml per well. […] Plates were scored after 14 days for colonies containing more than 50 cells. […]
# Megakaryocytopoiesis was measured in normal bone marrow cells from healthy consenting human donors by either scoring of the number of megakaryocytes in samples of liquid culture (RPMI-1640 plus 10% human AB serum, glutamine and antibiotics) with or without 100 μg per ml peptides derived from natural casein, or in a methylcellulose assay for assessing colony formation. […] In the methylcellulose assay megakaryocytes were counted with an inverted microscope on days 12-14 after seeding.
Substance,megakaryocyte formation and development [1],"cell counts ([2]; 10 μg per ml, 3 hours pretreatment)","HIV-1 infection level, P24 antigen ([2]; 10 μg per ml) [ng P24 Ag per ml]","cell counts ([2]; 25 μg per ml, 3 hours pretreatment)","HIV-1 infection level, P24 antigen ([2]; 25 μg per ml) [ng P24 Ag per ml]",resistance of CEM cells to HIV-1 infection (in words) ([2]; 3 hours pretreatment),HDL [3] [mg/dL],prevention of glucosuria (in words) [4],Healthy/Total* (healthy and well = sugar not detected in urine) [4],IPGT test result (in words) [5],"IPGT TEST 0 min. (pre-load), plasma glucose [5]","macrophages, % of total cell count ([1]; approximately 17% in unincubated controls) [%]",increase in lymphocyte cell number in infected cells ([6]; 250 μg) [%],increase in lymphocyte cell number in infected cells ([6]; 500 μg per ml) [%],megakaryocyte (MK) colonies [7] [colonies per 2×10^5 cells]
RPKHP [3P],significant increase,1.17 ×10^6,0.26,1.26 ×10^6,0.18,significant inhibition of HIV-1 infection,41,–,–,–,–,–,–,–,–
RPKHPIKHQ [X],–,–,–,–,–,–,–,highly effective,3/5,no evidence of abnormal glucose metabolism,94,~30,80,33,–
RPKHPIKHQGL [2a],significant increase,–,–,–,–,–,40,highly effective,4/5,The other two mice remained within normal glycemic range,95,–,–,–,–
"TPO: thrombopoietin, hematopoietic growth factor that stimulates megakaryocyte colony formation",–,–,–,–,–,–,–,–,–,–,–,–,–,–,16
